The test system of assay [1] is non-small cell lung cancer cell line H460. The experiment in a line: H460 proliferation assay in the presence of 3 uM ASP9521 (AKR1C3 specific inhibitor). The assay is classed as cell-based, human. As to conditions: H460 cells, CellTiter-Glo, 72 hours, in the presence of 3 uM ASP9521 added 4 hours prior to compounds; read-out: CTG H460: Avg IC50 (nM) [Assay Condition: ASP9521]. The procedure:
(§1) Specifically, exponentially growing cells were seeded at density of 3×10^3 cells per well in 96-well plate and incubated at 37° C. in 5% CO2, 95% air and 100% relative humidity for 24 hours before adding compounds. Compounds were solubilized in 100% DMSO at 10 mM. Compounds were added to the plate using Tecan D300e® digital Dispenser. After drug addition, the plates were incubated for an additional 72 hours at 37° C. in 5% CO2, 95% air and 100% relative humidity. At the end of the incubation, cell viability was quantified with CellTiter-Glo® assay.
To further confirm that compounds were activated by human AKR1C3, H460 proliferation assay were also performed in the presence of 3 uM […], an AKR1C3 specific inhibitor. ASP9521 were added to the plates 4 hours prior to the addition of compounds.

The test system is the same in assay [2]. The experiment in a line: In vitro human cancer cell line cytotoxicity (proliferation) assay in H460, CellTiter-Glo, 72 hours. The assay is classed as cell-based. The note with it: DMSO condition (no AKR1C3 inhibitor), read-out: CTG H460: Avg IC50 (nM) [Assay Condition: DMSO]. As to the method: Biological Example 1. In Vitro Human Cancer Cell Line Cytotoxicity Assay
IC50 values in nanomolar reported here were derived from in vitro proliferation assay data in non-small cell lung cancer cell line H460.
as §1

Setting [3] is: Homo sapiens, NCI-H460, 72 h, H460 cells.

Regarding `O=[N+]([O-])c1ccc2c(c1Oc1cccc(-n3ncnn3)c1)CC[C@H]2OP(=O)(N1CC1)N1CC1` [Example 437], the IC50 in assay [1] is 235 nM; in assay [2] (setting [3]), under 10 nM.

For the molecule `CC(OP(=O)(N1CC1)N1CC1)c1cc2cc(Oc3cccc(C(=O)N4CCC(F)(F)CC4)c3)c([N+](=O)[O-])cc2o1` (stereo not drawn) [Example 548], the 50% inhibitory concentration (IC50) is 2140 nM in assay [1] and under 10 nM in assay [2] (H460 cells).

On to `COc1ccc(Oc2c([N+](=O)[O-])ccc3c2CCC3OP(=O)(N2CC2)N2CC2)cc1-c1ccc(F)cn1` (stereo not drawn) [Example 339], for which the concentration for half-maximal inhibition (IC50) in assay [1] was 1360 nM; in assay [2] (H460 cells), under 10 nM.

For `O=[N+]([O-])c1ccc2c(c1Oc1cccc(OC(F)(F)F)c1)CCC2OP(=O)(N1CC1)N1CC1` (stereo not drawn) [Example 124], the concentration for half-maximal inhibition (IC50) in assay [1] was 547 nM; in assay [2] (setting [3]) it was under 10 nM.

For the molecule `Cn1cc(-c2ccc(Oc3c([N+](=O)[O-])ccc4c3CC[C@H]4OP(=O)(N3CC3)N3CC3)cc2)cn1` [Example 273], the figures for the concentration for half-maximal inhibition (IC50) in assay [1] and in assay [2] (H460 cells) were 1400 nM and under 10 nM, respectively.

Turning to `CC1(C)CN(c2cccc(Oc3c([N+](=O)[O-])ccc4c3CCC4OP(=O)(N3CC3)N3CC3)c2)C(=O)O1` (stereo not drawn) [Example 417], the figures for the half-maximal inhibitory concentration (IC50) in assay [1] and in assay [2] (H460 cells) were 712 nM and under 10 nM, respectively.

With `CN(C(=O)c1cccc(Oc2c([N+](=O)[O-])ccc3c2CC[C@@H]3OP(=O)(N2CC2)N2CC2)c1)c1cnn(C)c1` [Example 254], the IC50 is 786 nM in assay [1] and under 10 nM in assay [2] (H460 cells).

Consider `COc1ccc(Oc2c([N+](=O)[O-])ccc3c2CC[C@@H]3OP(=O)(N2CC2)N2CC2)cc1-c1ncc(F)cn1` [Example 293, (S)-4-(3-(5-fluoropyrimidin-2-yl)-4-methoxyphenoxy)-5-nitro-2,3-dihydro-1H-inden-1-yl di(aziridin-1-yl)phosphinate], for which the IC50 in assay [1] was 1050 nM; in assay [2] (setting [3]), under 10 nM.

In the case of `O=[N+]([O-])c1ccc2c(c1Oc1cncc(C3CC3)c1)CC[C@@H]2OP(=O)(N1CC1)N1CC1` [Example 319], the IC50 is 521 nM in assay [1] and under 10 nM in assay [2] (setting [3]).

Turning to `O=[N+]([O-])c1ccc2c(c1Oc1ccc(O)c(-c3ncccn3)c1)CC[C@@H]2OP(=O)(N1CC1)N1CC1` [Example 341], the half-inhibitory concentration (IC50) in assay [1] was 1920 nM; in assay [2] (setting [3]), under 10 nM.

With `CC(OP(=O)(N1C[C@@H]1C)N1C[C@@H]1C)c1ccc([N+](=O)[O-])c(Oc2ccc(-c3ccc(F)cn3)c(F)c2)c1` (stereo partly drawn) [Example 221], the 50% inhibitory concentration (IC50) in assay [1] was 1210 nM; in assay [2] (setting [3]) it was under 10 nM.

For `CC(OP(=O)(N1C[C@@H]1C)N1C[C@@H]1C)c1ccc([N+](=O)[O-])c(Oc2ccc(C(=O)N(C)C)cc2)c1` (stereo partly drawn) [Example 213], the IC50 in assay [1] was 1200 nM; in assay [2] (setting [3]), under 10 nM.

`O=[N+]([O-])c1ccc2c(c1Oc1ccc(F)c(C3CC3)c1)CCC2OP(=O)(N1CC1)N1CC1` (stereo not drawn) [Example 335]: the concentration for half-maximal inhibition (IC50) in assay [1] was 1910 nM; in assay [2] (H460 cells), under 10 nM.

For the molecule `Cc1cnc(-c2cccc(Oc3c([N+](=O)[O-])ccc4c3CC[C@@H]4OP(=O)(N3CC3)N3CC3)c2)o1` [Example 295, (S)-4-(3-(5-methyloxazol-2-yl)phenoxy)-5-nitro-2,3-dihydro-1H-inden-1-yl di(aziridin-1-yl)phosphinate], the IC50 in assay [1] is 3620 nM; in assay [2] (setting [3]), 10 to 50 nM.

Regarding `O=[N+]([O-])c1ccc2c(c1Oc1ccc(-c3ccccc3)cc1)CCC2OP(=O)(N1CC1)N1CC1` (single isomer, unassigned) [Example 19], the half-maximal inhibitory concentration (IC50) in assay [1] was 593 nM; in assay [2] (setting [3]), under 10 nM.

Take `O=[N+]([O-])c1ccc2c(c1Oc1ccc(F)c(OC3CCOCC3)c1)CC[C@H]2OP(=O)(N1CC1)N1CC1` [Example 496]: the results for the 50% inhibitory concentration (IC50) in assay [1] and in assay [2] (setting [3]) were 783 nM and under 10 nM, respectively.

For `C[C@@H]1CN1P(=O)(COc1c(F)c(F)c(OCc2ccc([N+](=O)[O-])c(Oc3ccc(C(=O)N(C)C)cc3)c2)c(F)c1F)N1C[C@H]1C` (stereo partly drawn) [Example 15], the IC50 in assay [1] was 947 nM; in assay [2] (setting [3]), under 10 nM.

In the case of `CN(C)C(=O)c1ccc(Oc2c([N+](=O)[O-])ccc3c2OCCC3OP(=O)(N2CC2)N2CC2)cc1` (single isomer, unassigned) [Example 130], the IC50 in assay [1] is 389 nM; in assay [2] (setting [3]) it was 10 to 50 nM.

With `O=[N+]([O-])c1ccc2c(c1Oc1ccc(-c3ccncc3)cc1)CCC2OP(=O)(N1CC1)N1CC1` (stereo not drawn) [Example 62], the half-maximal inhibitory concentration (IC50) in assay [1] is 6100 nM; in assay [2] (H460 cells), at least 100 nM.

Take `O=C1CCCCN1c1cccc(Oc2c([N+](=O)[O-])ccc3c2CCC3OP(=O)(N2CC2)N2CC2)c1` (stereo not drawn) [Example 108]: the half-maximal inhibitory concentration (IC50) in assay [1] was 1710 nM; in assay [2] (H460 cells) it was under 10 nM.

For `O=C1c2cc(Oc3cc4c(cc3[N+](=O)[O-])OCCC4OP(=O)(N3CC3)N3CC3)ccc2CN1C1CC1` (single isomer, unassigned) [Example 204], the figures for the 50% inhibitory concentration (IC50) in assay [1] and in assay [2] (H460 cells) were 1550 nM and 10 to 50 nM, respectively.

Turning to `O=[N+]([O-])c1ccc2c(c1Oc1ccc(OC3CCCC3)cc1)CCC2OP(=O)(N1CC1)N1CC1` (stereo not drawn) [Example 490], the values for the IC50 in assay [1] and in assay [2] (H460 cells) were 788 nM and under 10 nM, respectively.

For `O=C1c2cc(Oc3c([N+](=O)[O-])ccc4c3CC[C@@H]4OP(=O)(N3CC3)N3CC3)ccc2CN1C1CC1` (single isomer, unassigned) [Example 39], the IC50 in assay [1] is 561 nM; in assay [2] (setting [3]) it was under 10 nM.

`O=[N+]([O-])c1ccc2c(c1Oc1ccccc1)OCCC2OP(=O)(N1CC1)N1CC1` (stereo not drawn) [Example 127, 7-nitro-8-phenoxy-3,4-dihydro-2H-1-benzopyran-4-yl bis(aziridin-1-yl)phosphinate]: the half-maximal inhibitory concentration (IC50) is 291 nM in assay [1] and 10 to 50 nM in assay [2] (setting [3]).

Regarding `CC(C)c1cc(Oc2c([N+](=O)[O-])ccc3c2CCC3OP(=O)(N2CC2)N2CC2)ccc1F` (stereo not drawn) [Example 331], the IC50 is 1050 nM in assay [1] and under 10 nM in assay [2] (H460 cells).

On to `Cn1cc(Oc2cc(Oc3c([N+](=O)[O-])ccc4c3CC[C@@H]4OP(=O)(N3CC3)N3CC3)ccc2F)cn1` [Example 497], for which the IC50 in assay [1] was 1010 nM; in assay [2] (setting [3]), under 10 nM.

Regarding `CC(OP(=O)(N1C[C@H]1C)N1C[C@H]1C)c1ccc([N+](=O)[O-])c(Oc2ccc(-c3ccccc3)cc2)c1` (stereo partly drawn) [Example 218], the IC50 in assay [1] is 1370 nM; in assay [2] (setting [3]), under 10 nM.

Regarding `O=C(c1cccc(Oc2c([N+](=O)[O-])ccc3c2CCC3OP(=O)(N2CC2)N2CC2)c1)N1CCC(F)(F)CC1` (stereo not drawn) [Example 103], the figures for the IC50 in assay [1] and in assay [2] (setting [3]) were 811 nM and under 10 nM, respectively.

On to `Cn1cnc2cc(Oc3c([N+](=O)[O-])ccc4c3CCC4OP(=O)(N3CC3)N3CC3)ccc21` (stereo not drawn) [Example 390], for which the IC50 in assay [1] was 1410 nM; in assay [2] (Homo sapiens, NCI-H460, H460 cells) it was under 10 nM.

Turning to `O=C(c1cccc(Oc2cc3cc(COP(=O)(N4CC4)N4CC4)oc3cc2[N+](=O)[O-])c1)N1CCC(F)(F)C1` [Example 545], the IC50 in assay [1] was 970 nM; in assay [2] (H460 cells), under 10 nM.

As to `O=[N+]([O-])c1ccc2c(c1Oc1cccc(-n3ncnn3)c1)CC[C@@H]2OP(=O)(N1CC1)N1CC1` [Example 436], the IC50 in assay [1] is 138 nM; in assay [2] (setting [3]), under 10 nM.

For `O=[N+]([O-])c1ccc2c(c1Oc1cccc(-c3ccnn3CCO)c1)CC[C@@H]2OP(=O)(N1CC1)N1CC1` [Example 351], the figures for the half-inhibitory concentration (IC50) in assay [1] and in assay [2] (setting [3]) were 1570 nM and under 10 nM, respectively.

Consider `O=[N+]([O-])c1ccc2c(c1Oc1cccc(-c3cnn(C4CC4)c3)c1)CCC2OP(=O)(N1CC1)N1CC1` (stereo not drawn) [Example 95], for which the 50% inhibitory concentration (IC50) in assay [1] was 1310 nM; in assay [2] (H460 cells) it was 50 to 100 nM.

For the origin of these results see patent US20260167656A1, “PHOSPHORAMIDATE COMPOUNDS AND USES THEREOF” (ALLORION THERAPEUTICS INC, priority 2022, published 2026).
